“Also recorded” adds a separate entry of the source. Where two headings read alike, the source gives them in different places.
Experiments:
[1] = Analgesic antagonist testing against analgesic agonists of the W-1 to W-19 and 0-1 to 0-3 series, e.g. W-3 (phenylquinone writhing); assay type: in vivo, male Swiss albino mice
Description: (§1) The percent change is calculated according to the following equation: % change=100- (no. of writhes in treated group/no. of writhes in control group)×100.

[2] = Analgesic antagonist testing against morphine sulfate (phenylquinone writhing); assay type: in vivo, male Swiss albino mice
Description: as §1

[3] = assay type: in vivo, male Swiss albino mice; conditions: for % Inhibn, control (single agent) in antagonist study: alone
Description: as §1

O=S(=O)(N=C1CCCCN1CC1CC1)c1ccc(Cl)cc1 [Compound W-20, 1-Cyclopropylmethylpiperidylidene-2-(4-chlorophenyl)sulfonamide]
Antagonist activities, % inhibition of writhing with antagonist + agonist ([1]; Expt. 3: W-20 (0.5 mg/kg sc) 10 min before W-3 (2.0 mg/kg sc)): 53% | Antagonist activities, % inhibition of writhing with antagonist + agonist ([1]; Expt. 4: W-20 (2.0 mg/kg sc) 10 min before W-3 (2.0 mg/kg sc)): 49% | Block of agonist analgesic effect, in words ([1]; W-20 (0.5 mg/kg sc) vs W-3 (2.0 mg/kg sc)): partial block | Block of agonist analgesic effect, in words ([1]; W-20 (2.0 mg/kg sc) vs W-3 (2.0 mg/kg sc)): complete block; also recorded: completely blocks | Antagonist activities, % inhibition of writhing with antagonist + agonist ([2]; Expt. 1: W-20 (2.0 mg/kg sc) 10 min before MS (0.2 mg/kg sc)): 55% | Antagonist activities, % inhibition of writhing with antagonist + agonist ([2]; Expt. 2: W-20 (10.0 mg/kg sc) 10 min before MS (0.2 mg/kg sc)): 66% | Block of agonist analgesic effect, in words ([2]; W-20 (2.0 mg/kg sc) vs MS (0.2 mg/kg sc)): near complete block | Block of agonist analgesic effect, in words ([2]; W-20 (10.0 mg/kg sc) vs MS (0.2 mg/kg sc)): complete block; also recorded: completely blocks | % Inhibn, control (single agent) in antagonist study ([3]; 0.5 mg/kg sc): 36% | % Inhibn, control (single agent) in antagonist study ([3]; 2.0 mg/kg sc): 46% | % Inhibn, control (single agent) in antagonist study ([3]; 10.0 mg/kg sc): 69% | Analgesic action, inhibition action on phenylquinone writhing: dose giving 50 % inhibition ([3]; subcutaneous, 30 min before phenyl-p-benzoquinone, dose with 50 % inhibition): 2.3 mg/kg | Analgesic action, inhibition action on phenylquinone writhing, % inhibition ([3]; subcutaneous, at the dose listed for the substance under E1): 50%

Reference: US4468403A, “Analgesic substituted piperidylidene-2-sulfon(cyan)amide derivatives” (priority 1982, dated 1984)
